From patent US5187195A, “Anthraquinone derivatives and preparation thereof” (Fujisawa Pharmaceutical Co., Ltd., priority 1989, dated 1993)
Blank lines part the entries; values can stand above or below the compound they belong to.

How the values were obtained:
[1] = target: T1, crude receptor membrane fractions of porcine aorta (^125 I-endothelin binding) (Sus scrofa, UniProt Q29010); test: Radioligand binding assay (^125 I-Endothelin binding to porcine aorta membrane fractions); details: for IC50: concentration required to compete with ^125 I-endothelin (1.67×10^-11 M) for binding to porcine aorta membrane fractions by 50%, 60 minutes, room temperature, pH 7.5
T1 construct: tissue Pel-Freez Biologicals (U.S.A.); host or cells: porcine aorta, crude membrane fractions
T1 sequence (Q29010 21-427): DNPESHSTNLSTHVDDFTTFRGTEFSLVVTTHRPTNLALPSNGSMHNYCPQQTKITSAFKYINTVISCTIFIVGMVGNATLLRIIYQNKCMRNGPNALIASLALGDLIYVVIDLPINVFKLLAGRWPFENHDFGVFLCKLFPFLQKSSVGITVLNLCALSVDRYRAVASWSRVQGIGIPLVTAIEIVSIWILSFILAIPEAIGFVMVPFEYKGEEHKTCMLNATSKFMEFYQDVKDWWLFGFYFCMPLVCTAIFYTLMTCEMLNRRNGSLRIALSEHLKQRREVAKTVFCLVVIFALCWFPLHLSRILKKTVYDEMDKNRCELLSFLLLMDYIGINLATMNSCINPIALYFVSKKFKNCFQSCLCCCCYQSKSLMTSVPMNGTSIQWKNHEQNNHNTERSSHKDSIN
Protocol: Radioligand Binding Assay
(a) Preparation of crude receptor membrane fractions
Porcine aorta was purchased from Pel-Freez Biologicals (U.S.A.) and stored at -80° C. until use.
Porcine aorta (50 g) was thawed and dissected free from fatty tissue, minced with scissors and then homogenized with a polytron (Brinkmann PT-20, maximal speed for 3×10 sec) in 100 ml buffer (0.25 M sucrose, 10 mM Tris-HCl, 0.1 mM EDTA, pH 7.5).
The homogenate was centrifuged at 10,000 g for 20 minutes at 4° C.
The supernatant, containing the plasma membrane fraction, was centrifuged at 100,000 g for 60 minutes at 4° C., and then resultant pellets were referred to as crude membrane fractions.
The pellets were resuspended in 25 ml of binding assay buffer (50 mM Tris-HCl, 100 mM NaCl, 5 mM MgCl2, 1.5 μg/ml phenylmethylsulfonyl fluoride (PMSF), 120 μg/ml bacitracin, 12 μg/ml leupepcin, 6 μg/ml chymostain, 0.1% bovine serum albumin (BSA), pH 7.5)
The aorta membrane fractions were stored at -80° C. until use.
(b) ^125 I-Endothelin Binding Assay
^125 I-Endothelin (1.67×10^-11 M) (Amersham Japan, specific activity: 2000 Ci/m mol) was incubated with 50 μl of the aorta membrane fractions in binding assay buffer at room temperature (20°-22° C.) for 60 minutes in a final volume of 250 μl.
After incubation, the incubation mixture were filtered through Glass-fiber GF/C filter (pretreated with 0.1% polyethylene imine for 3 hours prior to use) using cell harvester (Brandel M-245). The filters were then washed ten times with a total of 3 ml of the washing buffer (50 mM Tris-HCl, pH 7.5) at 0° C. The filters were counted in a gamma counter (Packard Auto Gamma Model 5650).
The activity of test compounds was expressed as IC50 value, i.e. concentration required to compete with ^125 I-endothelin for binding to prorcine aorta membrane fractions by 50%.

Solubility = type: physicochemical
[2] = test system: contraction response of rabbit thoracic aorta induced by endothelin; test: Effect on rabbit aorta contraction response of endothelin (isolated strips); set-up: species or system rabbit (male albino); details: Oryctolagus cuniculus, endothelin 3.2×10^-9 M, % inhibition of maximum contraction, compound added after full contraction; for inhibition at 100 µM: 1 × 10^-4 M; for inhibition at 10 µM: 1 × 10^-5 M
Protocol: Effect of FR901366 Substance and FR901367 Substance on Rabbit Aorta of Contraction Response of Endothelin
Thoracic aorta were isolated from freshly killed male albino rabbits (11 weeks old) and cut into 25 mm strips with the intima denuded. After removing fatty tissues, these arterial segments (2 mm width and 25 mm length) were suspended in 25 ml organ chambers filled with Krebs-Ringer solution (113 mM NaCl, 4.8 mM KCl, 2.2 mM CaCl2, 1.2 mM MgCl2, 25 mM NaHCO3, 1.2 mM KH2 PO4, 5.5 mM glucose) maintained at 37° C. and gassed with 95% O2 /5% CO2.
A preload of 1 g was applied after the aorta had been conditioned by application of increasing concentration of KCl. Contractions were measured as an increase in isometric tension.
The test compound was tested against contraction response of endothelin (3.2×10^-9 M). Synthetic endothelin was obtained from Peptide Institute Inc. (Osaka, Japan). The test compound substance was added after the full contraction response induced endothelin.
The activity of the test compounds is expressed as the percentage inhibition of maximum contraction response induced by endothelin and shown in Table 7.

[3] = test system: endothelin induced pressor response; test: In vivo pressor effect in conscious rats (inhibition of endothelin induced pressor response); set-up: species or system rat (male Wister); details: 10 mg/kg i.v., 3 minutes before endothelin 2.4 μg/kg i.v., three rats
Protocol: Assay of In Vivo Pressor Effect in Conscious Rats
Male Wister rats (10 weeks old) were used. The mean arterial blood pressure was recorded from femoral artery via polyethylene catheter connected to the pressure transducer which was coupled to a Biophysiograph 180 system (Nihondenki-San-Ei Instrument Co., Ltd.).
FR901366 substance and endothelin were dissolved in saline and injected in bolus (0.2 ml) through polyethylene cateter inserted via femoral vein.
FR901366 substance was administered 3 minutes before the injection of endothelin. Inhibitory activity of FR90136 substance (10 mg/kg, i. v.) against endothelin (2.4 μg/kg, i. v.) induced pressor response was evaluated with a group of three rats and shown in Table 8.

Compound: COC(=O)C(CSC12C(=O)c3c(O)cccc3C(=O)C1(O)C1(O)C(=O)C=C(C)CC1(O)CC2OC(C)=O)NC(C)=O (centres unmarked) [FR129796]
IC50 [1]: 13.5 µM

Compound: CC1=CC(=O)C2(O)C(O)(CCC3(SCC(N)C(=O)O)C(=O)c4c(O)cccc4C(=O)C32O)C1 (centres unmarked) [FR131132]
IC50 [1]: 147 µM
Solubility (Solubility; chloroform): insoluble
Solubility (Solubility; ethanol): sparingly soluble
Solubility (Solubility; methanol): sparingly soluble
Solubility (Solubility; n-hexane): insoluble
Solubility (Solubility; water): sparingly soluble

Compound: CC1=CC(=O)C2(O)C(O)(CCC3(SCC(NC(=O)c4ccccc4)C(=O)O)C(=O)c4c(O)cccc4C(=O)C32O)C1 (centres unmarked) [FR131661]
IC50 [1]: 22 µM

Compound: CC1=CC(=O)C2(O)C(O)(CCC3(SCC(NC(=O)Cc4ccc(Cl)cc4)C(=O)O)C(=O)c4c(O)cccc4C(=O)C32O)C1 (centres unmarked) [FR131663]
IC50 [1]: 38.7 µM

Compound: CC1=CC(=O)C2(O)C(O)(CCC3(SCC(NC(=O)C(C)C)C(=O)O)C(=O)c4c(O)cccc4C(=O)C32O)C1 (centres unmarked) [FR131667]
IC50 [1]: 106 µM

Compound: CCCCCC(=O)NC(CSC12CCC3(O)CC(C)=CC(=O)C3(O)C1(O)C(=O)c1cccc(O)c1C2=O)C(=O)O (centres unmarked) [FR131668]
IC50 [1]: 17 µM

Compound: COC(=O)C(CSC12CCC3(OC(C)=O)CC(C)=CC(=O)C3(OC(C)=O)C1(OC(C)=O)C(=O)c1cccc(OC(C)=O)c1C2=O)NC(C)=O (centres unmarked) [FR134625]
IC50 [1]: 356 µM

Compound: CC[C@H](C)[C@H](NC(=O)C(CSC12CCC3(O)CC(C)=CC(=O)C3(O)C1(O)C(=O)c1cccc(O)c1C2=O)NC(C)=O)C(=O)N[C@@H](Cc1c[nH]c2ccccc12)C(=O)OC (some centres unmarked) [FR134763]
IC50 [1]: 37.2 µM

Compound: CC[C@H](C)[C@H](NC(=O)C(CSC12CCC3(O)CC(C)=CC(=O)C3(O)C1(O)C(=O)c1cccc(O)c1C2=O)NC(C)=O)C(=O)N[C@@H](Cc1c[nH]c2ccccc12)C(=O)O (some centres unmarked) [FR134764]
IC50 [1]: 12 µM

Compound: CC1=CC(=O)C2(O)C(O)(C1)CC(O)C1(SCC(N)C(=O)O)C(=O)c3c(O)cccc3C(=O)C12O (centres unmarked) [FR134851]
IC50 [1]: 20.7 µM
Solubility (Solubility; chloroform): insoluble
Solubility (Solubility; ethanol): soluble
Solubility (Solubility; methanol): soluble
Solubility (Solubility; n-hexane): insoluble
Solubility (Solubility; water): sparingly soluble

Continued by falling IC50 [1], values first:

IC50 [1]: 11.9 µM
Compound: COC(=O)[C@H](Cc1c[nH]c2ccccc12)NC(=O)C(CSC12CCC3(O)CC(C)=CC(=O)C3(O)C1(O)C(=O)c1cccc(O)c1C2=O)NC(C)=O (some centres unmarked) [FR134762]

IC50 [1]: 10.5 µM
Compound: COC(=O)C(CSC12CCC3(O)CC(C)=CC(=O)C3(O)C1(O)C(=O)c1cccc(O)c1C2=O)NC(C)=O (centres unmarked) [FR134624]

IC50 [1]: 10.3 µM
Compound: CC(=O)NC(CSC12CCC3(O)CC(C)=CC(=O)C3(O)C1(O)C(=O)c1cccc(O)c1C2=O)C(=O)NCCO (centres unmarked) [FR134761]

IC50 [1]: 10.3 µM
Compound: COC(=O)C(CSC12C(=O)c3c(OC(C)=O)cccc3C(=O)C1(O)C1(O)C(=O)C=C(C)CC1(O)CC2OC(C)=O)NC(C)=O (centres unmarked) [FR129797]

IC50 [1]: 5.97 µM
Solubility (Solubility; acetone): soluble
Solubility (Solubility; chloroform): sparingly soluble
Solubility (Solubility; hexane): insoluble
Solubility (Solubility; methanol): soluble
Solubility (Solubility; water): insoluble
Compound: CC(=O)NC(CSC12CCC3(O)CC(C)=CC(=O)C3(O)C1(O)C(=O)c1cccc(O)c1C2=O)C(=O)O (centres unmarked) [FR901366]
inhibition at 100 µM [2]: 39%
inhibition at 10 µM [2]: 15%
Inhibition of endothelin pressor response ([3]; 5 min after administration): 27.2%
Inhibition of endothelin pressor response ([3]; 10 min after administration): 50.0%
Inhibition of endothelin pressor response ([3]; 20 min after administration): 63.3%
Inhibition of endothelin pressor response ([3]; 30 min after administration): 53.8%
Inhibition of endothelin pressor response ([3]; 60 min after administration): 66.6%
Inhibition of endothelin pressor response ([3]; 120 min after administration): 50.0%

IC50 [1]: 4.33 µM
Compound: CC1=CC(=O)C2(O)C(O)(CCC3(SCC(NC(=O)OC(C)(C)C)C(=O)O)C(=O)c4c(O)cccc4C(=O)C32O)C1 (centres unmarked) [FR131662]

IC50 [1]: 2.73 µM
Compound: COC(=O)C(CSC12C(=O)c3c(O)cccc3C(=O)C1(O)C1(O)C(=O)C=C(C)CC1(O)CC2O)NC(C)=O (centres unmarked) [FR129795]

IC50 [1]: 0.672 µM
Solubility (Solubility; acetone): sparingly soluble
Solubility (Solubility; ethanol): soluble
Solubility (Solubility; ethyl acetate): sparingly soluble
Solubility (Solubility; methanol): soluble
Solubility (Solubility; n-hexane): insoluble
Solubility (Solubility; water): sparingly soluble
Compound: CC(=O)NC(CSC12C(=O)c3c(O)cccc3C(=O)C1(O)C1(O)C(=O)C=C(C)CC1(O)CC2O)C(=O)O (centres unmarked) [FR901367]
competition with ^125 I-endothelin for binding to porcine aorta membrane fractions ([1]; result in words): competes with ^125 I-endothelin for binding
inhibition at 100 µM [2]: 75%
inhibition at 10 µM [2]: 38.6%
